Assay results from patent US20040138312A1, “Methods for the treatment of neurodegeneration” (priority 2002, published 2004).

Assays:
Assay type in all cases: in vivo, C57B1/B6 type mice
MPTP-treated mice [1] = assay: Open-Field test in MPTP-treated mice; details: for Open field activity compared with the vehicle group: 3 mg/kg/day s.c. osmotic mini-pump 14 days
Protocol: Each animal is placed in a clear plastic open field box with two rows of photo-beams mounted on the sides to distinguish be5tween horizontal (i.e. distance traveled) and vertical (i.e. “rears”) movements. Ambient conditions are low noise and dim lighting. The animal's movements within the box are measured for 5 minutes, and calculated from records of the number and type of “beam-breaks” or photo-beam crossings. On the last Open Field test, only rears are counted, and classified as either “supported” or “unsupported”. Supported rears are when an animal places at least one forelimb on the side wall of the box when a rear is recorded. In an unsupported rear the mouse is supported solely by hindlimbs. These rears are distinguished by videorecording. The number of unsupported rears is the most reliable measure of dopamine neuron loss in this test.
(§1) Mice that receive systemic injections of the pyridine toxin 1-methyl-4-phenyl-1,2,3,6-tetrahydropyridine (MPTP) selectively lose large numbers of dopaminergic neurons in the substantia nigra (SN) and the ventral tegmental area (VTA). Loss of dopamine cells in the SN mimics the clinical condition seen in Parkinson's disease. Loss of such cells in the VTA may contribute to the cognitive deficits seen in Parkinson's and Alzheimer's disease, due to these neurons' projections into the frontal cortex.
(§2) 50 C57B1/B6 type mice (8-12 weeks old) are allowed to acclimate for 12-14 days before experimental use. The mice are then randomly assigned to the following groups: MPTP plus DMSO vehicle; vehicle alone, MPTP plus brimonidine (3 mg/kg/day), MPTP plus AGN 197075 (3 mg/kg/day), and MPTP plus AGN 196923 (3 mg/kg/day)).
In the presently described assays, each mouse is then given an initial Open-Field test and a Tail Hanging test. […]
(§3) For all behavioral tests, the results are first analyzed using a repeated measures ANOVA, following by tests of the between groups effect using Fisher's HSD method.

MPTP-treated mice [2] = assay: Tail Hanging test (forelimb placement) in MPTP-treated mice; details: during the period that the compound is administered; 3 mg/kg/day s.c. mini-pump
Excerpt: Mice are hung by their tails 3 times each, for approximately 10 seconds each time. Each mouse is hung by the base of its tail about 30 cm above the surface of a table until the mouse turns either left or right. A left turn is given a score of 0 and a right turn is given a score of 1.
Forelimb placement is also noted during tail hanging. The placement of the limbs is given a score on a 4 point scale. Extended limbs, or those placed above the head are given a score of 0. Limbs which are clasped or held against the body are given a score of 3. Scores of 1 or 2 are assigned for relative stages between the two extremes. Hindlimb placement is also scored as below.
as §1, §2
In the presently described assays, each mouse is then given an initial Open-Field test and a Tail Hanging test. The Open Field test is the most frequently used behavioral assay of MPTP-treated mice, and appears to be sensitive to loss of dopaminergic input from the substantia nigra. The Tail-Hanging test is sensitive to direct striatal damage; the Nest Building test is sensitive to loss of striatal input from the frontal cortex. […]
as §3

[3] = system: dopaminergic neurons in the substantia nigra (SN); assay: Neuron counting (tyrosine hydroxylase-labeled cells) in substantia nigra of MPTP-treated mice; details: for Neuron loss in the substantia nigra versus MPTP-treated animals: 3 mg/kg/day s.c. mini-pump 14 days, 55-60 days post MPTP; for Average Neuron Count (statistical error): substantia nigra, 3 mg/kg/day s.c. mini-pump 14 days + MPTP 40 mg/kg s.c., Control 60, Vehicle + MPTP 25
Excerpt: (§4) Between 55 and 60 day post MPTP injection, the mice are sacrificed using sodium nembutol. Mouse brains are perfused with phosphate buffered saline followed by Lana's fixative (paraformaldehyde and picric acid). The brains are removed and placed in Lana's fixative for 7 to 10 days. The brains are then sectioned coronally at 50 micrometers using a vibratome. And the sections stained with an antibody to tyrosine hydoxylase, the rate limiting enzyme in dopamine synthesis. The section was then examined under microscope at 100× magnification. Tissue slices (−2.9 mm and −3.6 mm posterior to Bregma were selected for cell counting in the SN and VTA. These sections are at the midpoint of the rostral half and the midpoint of the cauldual half of SN, respectively. Each TH-labeled cell that is clearly visible that has between 2 and 6 neurites is considered a neuron. An overall average count for each animal is calculated from the four sections (rostral and caudal, left and right). An average is obtained for the four sections. Separate analyses are performed on the neuron counts from SN and VTA. These counts are analyzed using a repeated measures ANOVA, following by tests of the between groups effect using Fisher's HSD method.
as §1, §2
Four out of the 5 groups of mice receive an infusion of a test compound (or of vehicle containing no compound). These infusions are administered via subcutaneous implanted osmotic mini-pump over a 14 day period at a flow of 0.25 microliters/hour. Three days following implantation of the pumps, the mice are given the Open Field and Tail Hanging tests, along with the group of control mice, who are not implanted with mini-pumps. Immediately following the tests, the pump containing mice were given a 40 mg/kg injection of MPTP subcutaneously. All groups are then given the Open Field and Tail Hanging tests at 10-12 days and 30-40 days following MPTP treatment. The Open Field, and Tail Hanging tests are given at 50-55 days post MPTP treatment.

[4] = system: dopaminergic neurons in the ventral tegmental area (VTA); assay: Neuron counting (tyrosine hydroxylase-labeled cells) in ventral tegmental area of MPTP-treated mice; details: 3 mg/kg/day s.c. mini-pump 14 days; MPTP alone 28% fewer neurons than Control
Excerpt: as §4, §1
50 C57B1/B6 type mice (8-12 weeks old) are allowed to acclimate for 12-14 days before experimental use. The mice are then randomly assigned to the following groups: MPTP plus DMSO vehicle; vehicle alone, MPTP plus brimonidine (3 mg/kg/day), MPTP plus AGN 197075 (3 mg/kg/day), and MPTP plus AGN 196923 (3 mg/kg/day)). […]

For `CCC1=CC(Cc2c[nH]cn2)CCC1` (stereo not drawn) [AGN 196923], the “Open field activity compared with the vehicle group” value (MPTP-treated mice [1]; 10 days post MPTP) was “significant reduces the amount of activity”, the “Impairment of forelimb extensions (tail hang test)” value (from here on “Impairment of forelimb extensions”) (MPTP-treated mice [2]) was “no such trend” and the “Neuron loss in the substantia nigra versus MPTP-treated animals” value [3] was “significantly less neuron loss”. The “Average Neuron Count (statistical error)” value [3] was 35 (±2) and the “Reduction of MPTP-induced neuron loss in the Ventral Tegmental area” value (“Reduction of MPTP-induced neuron loss” below) [4] was “about 10%”.
In the case of `OCCNC(=S)NCc1cccc(Cl)c1F` [AGN 197075], the “Number of unsupported rears compared with vehicle” value (MPTP-treated mice [1]; 3 mg/kg/day s.c. mini-pump, 50-60 days post MPTP treatment) is reported as “significantly more unsupported rears”, the “Impairment of forelimb extensions” value (MPTP-treated mice [2]) is reported as “significantly reduces this impairment” and the “Neuron loss in the substantia nigra versus MPTP-treated animals” value [3] is reported as “significantly less neuron loss”. The “Average Neuron Count (statistical error)” value [3] was 37 (±2) and the “Reduction of MPTP-induced neuron loss” value [4] was “about 10%”.
With `Brc1c(NC2=NCCN2)ccc2nccnc12` [brimonidine, reference compound] the “Open field activity compared with the vehicle group” value (MPTP-treated mice [1]; 10 and 30 days post MPTP (40 mg/kg s.c.)) was “no alteration in this increase of activity”, the “Impairment of forelimb extensions” value (MPTP-treated mice [2]) was “no such trend” and the “Neuron loss in the substantia nigra versus MPTP-treated animals” value [3] was “significantly less neuron loss”. For the same compound, the “Average Neuron Count (statistical error)” value [3] was 32 (±1) and the “Reduction of MPTP-induced neuron loss” value [4] was “about 10%”.
